Experimental data published in ChEMBL document CHEMBL3885881, “DrugMatrix”.

Organism: Rattus norvegicus
Test: DrugMatrix - Regimen: Daily Repeat
Format: toxicity, organism-based, Sprague-Dawley
Parameters: regimen Daily Repeat, gender Male, age 6-8 weeks
Conditions: in vivo, po, route oral GAVAGE, vehicle .5 % CMC; for ABSOLUTE BASOPHIL / ABSOLUTE EOSINOPHIL / ABSOLUTE LYMPHOCYTE / ABSOLUTE MONOCYTE / ABSOLUTE SEGMENTED NEUTROPHIL / BASOPHIL / EOSINOPHIL / ERYTHROCYTE COUNT / HEMATOCRIT / HEMOGLOBIN / LEUKOCYTE COUNT / LYMPHOCYTE / MEAN CORPUSCULAR HEMOGLOBIN / MEAN CORPUSCULAR HEMOGLOBIN CONCENTRATION / MEAN CORPUSCULAR VOLUME / MONOCYTE / NEUTROPHIL / NUCLEATED RED BLOOD CELLS / PLATELET COUNT: tissue Blood; for ALANINE AMINOTRANSFERASE / ALBUMIN / ALKALINE PHOSPHATASE / ASPARTATE AMINOTRANSFERASE / BLOOD UREA NITROGEN / CARBON DIOXIDE / CHLORIDE / CHOLESTEROL / CREATINE PHOSPHOKINASE / CREATININE / GLUCOSE / LACTATE DEHYDROGENASE / LIPASE / PHOSPHORUS / POTASSIUM / SODIUM / TOTAL BILIRUBIN / TOTAL PROTEIN / URIC ACID: tissue Plasma
[1] = 150 mg/kg, 120 h, dose level Low, time 5 day
[2] = 1500 mg/kg, 72 h, dose level High, time 3 day
[3] = 1500 mg/kg, 120 h, dose level High, time 5 day

C[C@@H](O)[C@H]1C(=O)N2C(C(=O)O)=C(S[C@@H]3CN[C@H](C(=O)N(C)C)C3)[C@H](C)[C@H]12 [MEROPENEM]
ABSOLUTE BASOPHIL [1]: 0 CELLS/uL | ABSOLUTE EOSINOPHIL [1]: 351 CELLS/uL | ABSOLUTE LYMPHOCYTE [1]: 13228.33 CELLS/uL | ABSOLUTE MONOCYTE [1]: 0 CELLS/uL | ABSOLUTE SEGMENTED NEUTROPHIL [1]: 1520.67 CELLS/uL | BASOPHIL [1]: 0% | EOSINOPHIL [1]: 2.33% | ERYTHROCYTE COUNT [1]: 5.62 x10E6/uL | HEMATOCRIT [1]: 34.4% | HEMOGLOBIN [1]: 13.1 G/DL | LEUKOCYTE COUNT [1]: 15.1 x10E3/uL | LYMPHOCYTE [1]: 88% | MEAN CORPUSCULAR HEMOGLOBIN [1]: 23.37 pg | MEAN CORPUSCULAR HEMOGLOBIN CONCENTRATION [1]: 38.1 G/DL | MEAN CORPUSCULAR VOLUME [1]: 61.33 fL | MONOCYTE [1]: 0% | NEUTROPHIL [1]: 9.67% | NUCLEATED RED BLOOD CELLS [1]: 0 /100WBC | PLATELET COUNT [1]: 1149.33 x10E3/uL | ALANINE AMINOTRANSFERASE [1]: 61.33 u/L | ALBUMIN [1]: 4.13 G/DL | ALKALINE PHOSPHATASE [1]: 367 u/L | ASPARTATE AMINOTRANSFERASE [1]: 86 u/L | BLOOD UREA NITROGEN [1]: 19 mg/dL | CARBON DIOXIDE [1]: 25.33 mmol/L | CHLORIDE [1]: 101.67 MEQ/L | CHOLESTEROL [1]: 70 mg/dL | CREATINE PHOSPHOKINASE [1]: 254 u/L | CREATININE [1]: 0.23 mg/dL | GLUCOSE [1]: 161 mg/dL | LACTATE DEHYDROGENASE [1]: 187.67 u/L | LIPASE [1]: 9 u/L | PHOSPHORUS [1]: 12.3 mg/dL | POTASSIUM [1]: 6.26 MEQ/L | SODIUM [1]: 142.3 MEQ/L | TOTAL BILIRUBIN [1]: 0.17 mg/dL | TOTAL PROTEIN [1]: 5.93 G/DL | URIC ACID [1]: 1.6 mg/dL | ABSOLUTE BASOPHIL [2]: 0 CELLS/uL | ABSOLUTE EOSINOPHIL [2]: 214 CELLS/uL | ABSOLUTE LYMPHOCYTE [2]: 12444.67 CELLS/uL | ABSOLUTE MONOCYTE [2]: 0 CELLS/uL | ABSOLUTE SEGMENTED NEUTROPHIL [2]: 841.33 CELLS/uL | BASOPHIL [2]: 0% | EOSINOPHIL [2]: 1.33% | ERYTHROCYTE COUNT [2]: 5.72 x10E6/uL | HEMATOCRIT [2]: 35.5% | HEMOGLOBIN [2]: 13.53 G/DL | LEUKOCYTE COUNT [2]: 13.5 x10E3/uL | LYMPHOCYTE [2]: 92.33% | MEAN CORPUSCULAR HEMOGLOBIN [2]: 23.8 pg | MEAN CORPUSCULAR HEMOGLOBIN CONCENTRATION [2]: 38.2 G/DL | MEAN CORPUSCULAR VOLUME [2]: 62.23 fL | MONOCYTE [2]: 0% | NEUTROPHIL [2]: 6.33% | NUCLEATED RED BLOOD CELLS [2]: 0 /100WBC | PLATELET COUNT [2]: 1189 x10E3/uL | ALANINE AMINOTRANSFERASE [2]: 52.67 u/L | ALBUMIN [2]: 4.33 G/DL | ALKALINE PHOSPHATASE [2]: 317 u/L | ASPARTATE AMINOTRANSFERASE [2]: 76 u/L | BLOOD UREA NITROGEN [2]: 13.33 mg/dL | CARBON DIOXIDE [2]: 29.33 mmol/L | CHLORIDE [2]: 99.67 MEQ/L | CHOLESTEROL [2]: 85.33 mg/dL | CREATINE PHOSPHOKINASE [2]: 176.67 u/L | CREATININE [2]: 0.17 mg/dL | GLUCOSE [2]: 160.67 mg/dL | LACTATE DEHYDROGENASE [2]: 71 u/L | LIPASE [2]: 9 u/L | PHOSPHORUS [2]: 11.83 mg/dL | POTASSIUM [2]: 6.87 MEQ/L | SODIUM [2]: 144.6 MEQ/L | TOTAL BILIRUBIN [2]: 0.17 mg/dL | TOTAL PROTEIN [2]: 5.9 G/DL | URIC ACID [2]: 1.9 mg/dL | ABSOLUTE BASOPHIL [3]: 0 CELLS/uL | ABSOLUTE EOSINOPHIL [3]: 276.67 CELLS/uL | ABSOLUTE LYMPHOCYTE [3]: 12982 CELLS/uL | ABSOLUTE MONOCYTE [3]: 0 CELLS/uL | ABSOLUTE SEGMENTED NEUTROPHIL [3]: 1474.67 CELLS/uL | BASOPHIL [3]: 0% | EOSINOPHIL [3]: 2% | ERYTHROCYTE COUNT [3]: 5.69 x10E6/uL | HEMATOCRIT [3]: 36.37% | HEMOGLOBIN [3]: 13.67 G/DL | LEUKOCYTE COUNT [3]: 14.73 x10E3/uL | LYMPHOCYTE [3]: 88% | MEAN CORPUSCULAR HEMOGLOBIN [3]: 24.07 pg | MEAN CORPUSCULAR HEMOGLOBIN CONCENTRATION [3]: 37.6 G/DL | MEAN CORPUSCULAR VOLUME [3]: 63.97 fL | MONOCYTE [3]: 0% | NEUTROPHIL [3]: 10% | NUCLEATED RED BLOOD CELLS [3]: 0 /100WBC | PLATELET COUNT [3]: 1178 x10E3/uL | ALANINE AMINOTRANSFERASE [3]: 52.33 u/L | ALBUMIN [3]: 4.47 G/DL | ALKALINE PHOSPHATASE [3]: 443.33 u/L | ASPARTATE AMINOTRANSFERASE [3]: 75.67 u/L | BLOOD UREA NITROGEN [3]: 16.67 mg/dL | CARBON DIOXIDE [3]: 28.33 mmol/L | CHLORIDE [3]: 101.33 MEQ/L | CHOLESTEROL [3]: 60.67 mg/dL | CREATINE PHOSPHOKINASE [3]: 199 u/L | CREATININE [3]: 0.23 mg/dL | GLUCOSE [3]: 155 mg/dL | LACTATE DEHYDROGENASE [3]: 127.33 u/L | LIPASE [3]: 9 u/L | PHOSPHORUS [3]: 12.27 mg/dL | POTASSIUM [3]: 6.59 MEQ/L | SODIUM [3]: 147.07 MEQ/L | TOTAL BILIRUBIN [3]: 0.13 mg/dL | TOTAL PROTEIN [3]: 6.3 G/DL | URIC ACID [3]: 1.6 mg/dL
